# Reference: US8546338B2, “Self-assembling hydrogels based on dicephalic peptide amphiphiles” (Johnson & Johnson Consumer Companies, Inc., priority 2010, dated 2013)
# Columns and labels:
# [1] = Gelation experiments: inversion test for self-supporting hydrogels; assay type: physicochemical; settings: for Gelation (self-supporting gel on inversion), Calcium added: DMEM plus 10 μl of 100 mg/cc calcium chloride solution; for Concentration at which gel forms, Calcium added: DMEM with calcium chloride added; for Gelation (self-supporting gel on inversion), DMEM: DPA solution in water mixed 1:1 with DMEM, no calcium added; for Minimal concentration at which gel formed: in DMEM with calcium added; for Gelation (self-supporting gel on inversion), Water: in water, final concentrations 1, 2 and 4 weight percent tested
# Experimental: (§1) Inversion tests were performed to determine qualitatively under which conditions the various DPAs formed self-supporting hydrogels. The various types of DPAs were tested by dissolving them in ultrapure water (>18 MΩ resistivity) at double the desired final concentration followed by mixing in a 1:1 ratio with different liquid mediums. Gelation was deemed to have occurred if the gel supported its own weight upon inverting the vial (FIG. 3A and FIG. 3B). Gelation was tested at final concentrations of 1, 2 and 4 weight percent. We tested phosphate buffered saline (PBS), and Dulbecco's modified eagle media (DMEM) as liquid medium. Typical scale is 100 μl each of DPA solution in water and mixing medium but other scales have been tested. Finally, if no spontaneous gelation occurs, 10 μl of 100 mg/cc calcium chloride solution was added to induce gelation.
# [2] = Oscillating rheology, time sweep (kinetics of formation); assay type: physicochemical
# Experimental: Oscillating rheology by the parallel plates method (radius=25 mm) was performed on 400 μl gels to assess the mechanical strengths of gels. Time sweeps were performed to evaluate kinetics of formation at a constant strain rate of 1% and frequency of 1 rad/s. Strain sweeps were performed ranging from 1-100% strain in increments of 2% at a constant frequency of 1 rad/s. Cross-over of G′ and G″ was used to determine the gel point and point of breakdown. Time sweeps were initiated immediately after mixing the solutions that lead to DPA hydrogel formation. In the strain sweeps, the gels were allowed to form on the plate for 30 minutes before the measurement is initiated.
# The gelation process was initiated on the plate at 25° C. by the addition of 10 μl of 100 mg/ml calcium chloride solution to a solution of the DPA in DMEM.
# [3] = Cell viability of encapsulated hUTCs in DPA gels (Live/Dead); assay type: cell-based, human; settings: human, human umbilical cord cells (hUTCs) encapsulated in DPA gel; 2% DPA, 100,000 cells, calcium chloride added, after 7 days of culture, Live/Dead; read-out: Viability of hUTC cells in the gels
# Experimental: The viability and proliferation of cells in the gels was evaluated by encapsulating human umbilical cord cells (hUTCs) in the gels. hUTCs were isolated as described in U.S. Pat. No. 7,510,873. Cells were thawed from storage and cultured for four days in Hayflick media. After four days, the cells were trypsinized and counted by the Guava ViaCount methodology (Millipore, Billerica, Mass.). Cells were re-suspended in Hayflick media at a density of 1,000,000 cells/ml. Encapsulation of the cells in the gels was achieved by adding 100 μl cell suspension to 100 μl of a 4 wt % DPA solution in ultrapure in a 24 well plate, resulting in a final DPA concentration of 2%. The gels were incubated for 1 h at 37° C., 5% CO2 after which 1000 μl media was added on top of the gel. Cells were incubated at 37° C., 5% CO2. Every 3-4 days of culture, 500 μl media was replaced.
# After mixing of the cell suspension and 4% DPA solution by pipetting up and down, the protocol described above was modified by adding 10 μl 100 mg/ml calcium chloride solution upon which gelation occurred. Final concentrations are 2% in DPA and 100,000 cells. Control gels without cells were prepared by using pure media and additional cell only and cells with calcium chloride controls were prepared as standard 2D culture. After 7 days of culture, the gels were assayed with Live/Dead assay for cell viability and Invitrogen CyQuant GR assay for cell proliferation (Invitrogen, Carlsbad, Calif.). The Live/Dead was performed as described in the provided protocol but at half the […] concentration to reduce non-specific fluorescence due to dye absorption. […] The cells in the gels contained a lot of viable cells (FIG. 410). No dead cells could be observed in the gels. Therefore, the viability of these cells in the gels is very high (>95%).
# In a second experiment, 100,000 hUTC cells were encapsulated in 2 wt % Gly-Phe-Gly-Phe-Gly-Phe-Gly-Gln-Gln-Ser (SEQ ID NO: 8) DPA gels. The cells were cultured for 3 weeks and cells were assessed after 1, 2 and 3 weeks with Live/Dead.
# [4] = tested on: Sprague-Dawley rats; assay: Biocompatibility study, gel injected into intra-gluteal muscle pocket; assay type: in vivo; settings: rat; for Tissue response (histology): harvest at 3, 7 and 28 days
# Experimental: A biocompatibility study was performed on Gly-Val-Ala-Val-Ala-Val-Ala-Glu-Gly-Glu (SEQ ID NO: 4), Gly-Phe-Gly-Phe-Gly-Phe-Gly-Glu-Gly-Glu (SEQ ID NO: 5) and Gly-Phe-Gly-Phe-Gly-Phe-Gly-Gln-Gln-Ser (SEQ ID NO: 8) DPAs. Lyophilized DPA powders were e-beam sterilized in 1.5 cc polypropylene cryovials at 15 KGy. Gels were pre-formed in 1 cc syringes by mixing a 4 wt % DPA solution in water for injection in a 1:1 ratio with DMEM followed by immediate aspiration into the syringe. In the case of the formulations with the Glu-Gly-Glu (SEQ ID NO: 27) sequence in the solubility enhancing region, 10 μl of a sterile 100 mg/cc calcium chloride solution was mixed in before aspiration into the syringe. An intra-gluteal muscle pocket was created in Sprague-Dawley rats after which 100 μl of gel was injected using a catheter fitted to the syringe. Subsequently, the pocket was closed with polyglactin 910 sutures sold under the tradename VICRYL (Ethicon, Somerville, N.J.). Tissue was harvested at 3, 7 and 28 days after implantation.
# [5] = Dissolution of DPA in ultrapure water; assay type: physicochemical; settings: ultrapure water (>18 MΩ resistivity)
# Experimental: as §1
# [6] = Titration of DPA acid groups with calcium ions; assay type: physicochemical; settings: calcium titrated down from 16 to 1 equivalent by halving
# Description: The […] (SEQ ID NO: 3) DPA was titrated with calcium ions to determine the number of acid groups that required ion complexation in order for gelation to occur. Theoretically, there are eight acid groups (four per head group) that could be involved in the gelation process (FIG. 4).
# [7] = 2 wt % DPA in DMEM, calcium chloride added, 25° C.
Solubility in ultrapure water [5],Structure (SMILES),"Gelation (self-supporting gel on inversion), Calcium added [1]","Concentration at which gel forms, Calcium added [1]","Gelation (self-supporting gel on inversion), DMEM [1]",Minimal concentration at which gel formed [1],"Gelation (self-supporting gel on inversion), Water [1]","G′ after 10 minutes [2, 7]",further results
–,CCCCCCCCCCCCCCCC(=O)NC(C(=O)NCC(=O)N[C@@H](Cc1ccccc1)C(=O)NCC(=O)N[C@@H](Cc1ccccc1)C(=O)NCC(=O)N[C@@H](Cc1ccccc1)C(=O)NCC(=O)N[C@@H](CCC(=O)O)C(=O)NCC(=O)N[C@@H](CCC(=O)O)C(=O)O)C(=O)NCC(=O)N[C@@H](Cc1ccccc1)C(=O)NCC(=O)N[C@@H](Cc1ccccc1)C(=O)NCC(=O)N[C@@H](Cc1ccccc1)C(=O)NCC(=O)N[C@@H](CCC(=O)O)C(=O)NCC(=O)N[C@@H](CCC(=O)O)C(=O)O [Gly-Phe-Gly-Phe-Gly-Phe-Gly-Glu-Gly-Glu],Yes,1 wt %,No,1 weight percent,No,"4,000 Pa","G′ after 10 minutes ([2]; 1 wt % DPA in DMEM, calcium chloride added, 25° C.): 300 Pa; Estimated final strength (extrapolation of the curve) ([2]; 2 wt % DPA in DMEM, calcium chloride added): ~10,000 Pa; G′ (strength) after 1 hour [2, 7]: 7,200 Pa; G′ after temperature raised to 37° C. ([2]; 2 wt % DPA, after 1 hour, temperature raised from 25° C. to 37° C.): 5,000 Pa; viability at 168 h [3]: > 95%; Gross observations ([4]; in vivo): some fluid buildup at day 3"
could not be solubilized,CCCCCCCCCCCCCCCC(=O)NC(C(=O)N[C@@H](Cc1ccccc1)C(=O)NCC(=O)N[C@@H](Cc1ccccc1)C(=O)NCC(=O)N[C@@H](Cc1ccccc1)C(=O)NCC(=O)N[C@@H](CCCCN)C(=O)N[C@@H](C)C(=O)O)C(=O)N[C@@H](Cc1ccccc1)C(=O)NCC(=O)N[C@@H](Cc1ccccc1)C(=O)NCC(=O)N[C@@H](Cc1ccccc1)C(=O)NCC(=O)N[C@@H](CCCCN)C(=O)N[C@@H](C)C(=O)O [Phe-Gly-Phe-Gly-Phe-Gly-Lys-Ala],–,–,–,–,–,–,–
–,CCCCCCCCCCCCCCCC(=O)NC(C(=O)NCC(=O)N[C@H](C(=O)N[C@@H](C)C(=O)N[C@H](C(=O)N[C@@H](C)C(=O)N[C@H](C(=O)N[C@@H](C)C(=O)N[C@@H](CCC(=O)O)C(=O)NCC(=O)N[C@@H](CCC(=O)O)C(=O)O)C(C)C)C(C)C)C(C)C)C(=O)NCC(=O)N[C@H](C(=O)N[C@@H](C)C(=O)N[C@H](C(=O)N[C@@H](C)C(=O)N[C@H](C(=O)N[C@@H](C)C(=O)N[C@@H](CCC(=O)O)C(=O)NCC(=O)N[C@@H](CCC(=O)O)C(=O)O)C(C)C)C(C)C)C(C)C [Gly-Val-Ala-Val-Ala-Val-Ala-Glu-Gly-Glu],Yes,2 wt %,No,2 weight percent,No,140 Pa,"viability at 168 h, 2 % [3]: > 95%; Gross observations ([4]; 100 μl gel, intra-gluteal muscle pocket, day 3, no longer observed at other time points): some fluid buildup at day 3; Tissue response (histology) ([4]; 100 μl gel, intra-gluteal muscle pocket): some necrosis of the underlying tissue layer was observed; Tissue response (histology) ([4]; 100 μl gel, intra-gluteal muscle pocket, listed as Val-Ala-Val-Ala-Val-Ala-Glu-Gly-Glu (SEQ ID NO: 39)): necrosis of the underlying muscle tissue"
could not be solubilized,CCCCCCCCCCCCCCCC(=O)NC(C(=O)N[C@H](C(=O)N[C@@H](C)C(=O)N[C@H](C(=O)N[C@@H](C)C(=O)N[C@H](C(=O)N[C@@H](C)C(=O)N[C@@H](CCCCN)C(=O)N[C@@H](C)C(=O)O)C(C)C)C(C)C)C(C)C)C(=O)N[C@H](C(=O)N[C@@H](C)C(=O)N[C@H](C(=O)N[C@@H](C)C(=O)N[C@H](C(=O)N[C@@H](C)C(=O)N[C@@H](CCCCN)C(=O)N[C@@H](C)C(=O)O)C(C)C)C(C)C)C(C)C [Val-Ala-Val-Ala-Val-Ala-Lys-Ala],–,–,–,–,–,–,–
–,CCCCCCCCCCCCCCCC(=O)NC(C(=O)N[C@H](C(=O)N[C@@H](C)C(=O)N[C@H](C(=O)N[C@@H](C)C(=O)N[C@H](C(=O)N[C@@H](C)C(=O)N[C@@H](CCC(=O)O)C(=O)N[C@@H](CCC(=O)O)C(=O)N[C@@H](CCC(=O)O)C(=O)O)C(C)C)C(C)C)C(C)C)C(=O)N[C@H](C(=O)N[C@@H](C)C(=O)N[C@H](C(=O)N[C@@H](C)C(=O)N[C@H](C(=O)N[C@@H](C)C(=O)N[C@@H](CCC(=O)O)C(=O)N[C@@H](CCC(=O)O)C(=O)N[C@@H](CCC(=O)O)C(=O)O)C(C)C)C(C)C)C(C)C [Val-Ala-Val-Ala-Val-Ala-Glu-Glu-Glu],Yes,2 wt %,No,2 weight percent,No,–,Transition point between stable gel formation and no or weak gel formation [6]: between two and one equivalent of calcium
